Experimental data published in PubChem BioAssay AID1963982 (Molecular Pharmacology Branch, DTP, NCI, 2024).

Test system: 313798-341-R-J2-PDC spheroids, viability
Test: Anticancer human tumor 313798-341-R-J2-PDC patient-derived cervical squamous cell carcinoma cell line growth inhibition [PI3K]
Conditions: spheroids with HUVEC and MSC; for viability, T/C: stronger effect = lower value
In short: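 Viability of mixed-cell spheroids was determined after exposure to pairwise combinations, one partner being inavolisib, alpelisib, duvelisib or copanlisib. Highest tested concentration matched clinical Cmax where known and 10 microM where not, descending in half-log steps.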

[1] = curve of first compound, second compound 0.00316 µM
[2] = curve of first compound, second compound 0.01 µM
[3] = curve of first compound, second compound 0.0316 µM
[4] = curve of first compound, second compound 0.1 µM
[5] = curve of first compound, second compound 0.316 µM
[6] = curve of first compound, second compound 1 µM
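Note: spheroids exposed to compounds for seven days.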
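Throughout, for viability, T/C: 100% = DMSO vehicle control viability.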

## C=CC(=O)N1CCN(c2nc(=O)n(-c3c(C)ccnc3C(C)C)c3nc(-c4c(O)cccc4F)c(F)cc23)C(C)C1 (stereo unspecified) + CC(Nc1ccc2c(c1)OCCn1cc(N3C(=O)OCC3C(F)F)nc1-2)C(N)=O
[1]
  IC50: > 10000 nM
[2]
  IC50: > 10000 nM
[3]
  IC50: > 10000 nM
[4]
  IC50: > 10000 nM
[5]
  IC50: > 10000 nM
[6]
  IC50: > 10000 nM
Second compound 0.00316 µM, first compound 0.0316 µM
  viability, T/C: 111%
Second compound 0.00316 µM, first compound 0.1 µM
  viability, T/C: 92.3%
Second compound 0.00316 µM, first compound 0.316 µM
  viability, T/C: 97.2%
Second compound 0.00316 µM, first compound 1 µM
  viability, T/C: 96%
Second compound 0.00316 µM, first compound 3.16 µM
  viability, T/C: 105%
Second compound 0.00316 µM, first compound 10 µM
  viability, T/C: 98.7%
Second compound 0.01 µM, first compound 0.0316 µM
  viability, T/C: 98.3%
Second compound 0.01 µM, first compound 0.1 µM
  viability, T/C: 102%
Second compound 0.01 µM, first compound 0.316 µM
  viability, T/C: 97.8%
Second compound 0.01 µM, first compound 1 µM
  viability, T/C: 95.2%
Second compound 0.01 µM, first compound 3.16 µM
  viability, T/C: 102%
Second compound 0.01 µM, first compound 10 µM
  viability, T/C: 97.7%
Second compound 0.0316 µM, first compound 0.0316 µM
  viability, T/C: 110%
Second compound 0.0316 µM, first compound 0.1 µM
  viability, T/C: 97.1%
Second compound 0.0316 µM, first compound 0.316 µM
  viability, T/C: 104%
Second compound 0.0316 µM, first compound 1 µM
  viability, T/C: 96.9%
Second compound 0.0316 µM, first compound 3.16 µM
  viability, T/C: 106%
Second compound 0.0316 µM, first compound 10 µM
  viability, T/C: 102%
Second compound 0.1 µM, first compound 0.0316 µM
  viability, T/C: 104%
Second compound 0.1 µM, first compound 0.1 µM
  viability, T/C: 95.3%
Second compound 0.1 µM, first compound 0.316 µM
  viability, T/C: 102%
Second compound 0.1 µM, first compound 1 µM
  viability, T/C: 101%
Second compound 0.1 µM, first compound 3.16 µM
  viability, T/C: 118%
Second compound 0.1 µM, first compound 10 µM
  viability, T/C: 100%
Second compound 0.316 µM, first compound 0.0316 µM
  viability, T/C: 83.7%
Second compound 0.316 µM, first compound 0.1 µM
  viability, T/C: 85.8%
Second compound 0.316 µM, first compound 0.316 µM
  viability, T/C: 86.8%
Second compound 0.316 µM, first compound 1 µM
  viability, T/C: 96.7%
Second compound 0.316 µM, first compound 3.16 µM
  viability, T/C: 87.5%
Second compound 0.316 µM, first compound 10 µM
  viability, T/C: 70%
Second compound 1 µM, first compound 0.0316 µM
  viability, T/C: 55.2%
Second compound 1 µM, first compound 0.1 µM
  viability, T/C: 59.5%
Second compound 1 µM, first compound 0.316 µM
  viability, T/C: 54.8%
Second compound 1 µM, first compound 1 µM
  viability, T/C: 56.4%
Second compound 1 µM, first compound 3.16 µM
  viability, T/C: 66.7%
Second compound 1 µM, first compound 10 µM
  viability, T/C: 56.2%

## COc1c(OCCCN2CCOCC2)ccc2c3n(c(=NC(=O)c4cnc(N)nc4)nc12)CCN3
Compound 0.00316 µM
  viability, T/C: 101% [middle of 7 runs]
Compound 0.01 µM
  viability, T/C: 102% [middle of 7 runs]
Compound 0.0316 µM
  viability, T/C: 84.5% [middle of 7 runs]
Compound 0.1 µM
  viability, T/C: 42.1% [middle of 7 runs]
Compound 0.316 µM
  viability, T/C: 14.9% [middle of 7 runs]
Compound 1 µM
  viability, T/C: 11.9% [middle of 7 runs]
Compound alone, run of 04/25/2023
  IC50: 80.2 nM [middle of 7 runs]

## Cn1cnc2c(F)c(Nc3ccc(Br)cc3Cl)c(C(=O)NOCCO)cc21 + CC(Nc1ccc2c(c1)OCCn1cc(N3C(=O)OCC3C(F)F)nc1-2)C(N)=O
[1]
  IC50: 1200 nM
[2]
  IC50: 841 nM
[3]
  IC50: 547 nM
[4]
  IC50: 265 nM
[5]
  IC50: 26.1 nM
[6]
  IC50: < 9.49 nM
Second compound 0.00316 µM, first compound 0.00949 µM
  viability, T/C: 87.2%
Second compound 0.00316 µM, first compound 0.03 µM
  viability, T/C: 107%
Second compound 0.00316 µM, first compound 0.0949 µM
  viability, T/C: 97.8%
Second compound 0.00316 µM, first compound 0.3 µM
  viability, T/C: 81.5%
Second compound 0.00316 µM, first compound 0.949 µM
  viability, T/C: 57.9%
Second compound 0.00316 µM, first compound 3 µM
  viability, T/C: 23.4%
Second compound 0.01 µM, first compound 0.00949 µM
  viability, T/C: 95.6%
Second compound 0.01 µM, first compound 0.03 µM
  viability, T/C: 103%
Second compound 0.01 µM, first compound 0.0949 µM
  viability, T/C: 96.1%
Second compound 0.01 µM, first compound 0.3 µM
  viability, T/C: 84.2%
Second compound 0.01 µM, first compound 0.949 µM
  viability, T/C: 46%
Second compound 0.01 µM, first compound 3 µM
  viability, T/C: 20.8%
Second compound 0.0316 µM, first compound 0.00949 µM
  viability, T/C: 97.6%
Second compound 0.0316 µM, first compound 0.03 µM
  viability, T/C: 92.8%
Second compound 0.0316 µM, first compound 0.0949 µM
  viability, T/C: 92.9%
Second compound 0.0316 µM, first compound 0.3 µM
  viability, T/C: 60.8%
Second compound 0.0316 µM, first compound 0.949 µM
  viability, T/C: 38.4%
Second compound 0.0316 µM, first compound 3 µM
  viability, T/C: 11.8%
Second compound 0.1 µM, first compound 0.00949 µM
  viability, T/C: 79.4%
Second compound 0.1 µM, first compound 0.03 µM
  viability, T/C: 69.9%
Second compound 0.1 µM, first compound 0.0949 µM
  viability, T/C: 66.2%
Second compound 0.1 µM, first compound 0.3 µM
  viability, T/C: 46%
Second compound 0.1 µM, first compound 0.949 µM
  viability, T/C: 29.9%
Second compound 0.1 µM, first compound 3 µM
  viability, T/C: 4.42%
Second compound 0.316 µM, first compound 0.00949 µM
  viability, T/C: 57.9%
Second compound 0.316 µM, first compound 0.03 µM
  viability, T/C: 46.5%
Second compound 0.316 µM, first compound 0.0949 µM
  viability, T/C: 41.3%
Second compound 0.316 µM, first compound 0.3 µM
  viability, T/C: 28.8%
Second compound 0.316 µM, first compound 0.949 µM
  viability, T/C: 16.7%
Second compound 0.316 µM, first compound 3 µM
  viability, T/C: 2.27%
Second compound 1 µM, first compound 0.00949 µM
  viability, T/C: 35.4%
Second compound 1 µM, first compound 0.03 µM
  viability, T/C: 34.2%
Second compound 1 µM, first compound 0.0949 µM
  viability, T/C: 30.1%
Second compound 1 µM, first compound 0.3 µM
  viability, T/C: 19.6%
Second compound 1 µM, first compound 0.949 µM
  viability, T/C: 9.79%
Second compound 1 µM, first compound 3 µM
  viability, T/C: 1.11%
